In series [1] the target is MAP4K4 (Homo sapiens, UniProt O95819). As to the kind of experiment: MAP4K4 kinase assay (in-house). Type of series: biochemical. The text has this:
Signaling pathways mediating anticancer activity. […] We established the MAP4K4 kinase assay in-house and confirmed that the compounds are indeed potent MAP4K4 inhibitors.

For series [2], the system named is A498. The series is described as follows: Activity against cancer cell lines. In kind it is cell-based. Conditions: Homo sapiens. The text has this: (§1) Exemplary data is shown below.
Series [3] relates to ACHN. The series is described as follows: Activity against cancer cell lines. In kind it is cell-based. Particulars: Homo sapiens.
Excerpt: as §1

Series [4] relates to ADRRES. The series is described as follows: Activity against cancer cell lines. In kind it is cell-based.
Excerpt: as §1

For series [5], the system named is CAKI1. The series is described as follows: Activity against cancer cell lines. In kind it is cell-based. Conditions: Homo sapiens, CAKI-1.
Excerpt: as §1

In series [6] the test system is HCT15. As to the kind of experiment: Activity against cancer cell lines. Type of series: cell-based. Particulars: Homo sapiens, HCT-15.
Excerpt: as §1

In series [7] the test system is HL60. The series is described as follows: Activity against cancer cell lines. In kind it is cell-based.
Excerpt: as §1

Series [8] has as its system LOXIMVI. The series is described as follows: Activity against cancer cell lines. Particulars: Homo sapiens, LOX IMVI. Type of series: cell-based.
Excerpt: as §1

The subject of series [9] is M14. The series is described as follows: Activity against cancer cell lines. In kind it is cell-based. Particulars: Homo sapiens.
Excerpt: as §1

In series [10] the test system is MCF7. The series is described as follows: Activity against cancer cell lines. Type of series: cell-based. Particulars: Homo sapiens.
Excerpt: as §1

Series [11] concerns MDAMB435. The series is described as follows: Activity against cancer cell lines. In kind it is cell-based. Conditions: Homo sapiens, MDA-MB-435.
Excerpt: as §1

Series [12] concerns MOLT4. The series is described as follows: Activity against cancer cell lines. In kind it is cell-based. Conditions: Homo sapiens, MOLT-4.
Excerpt: as §1

Series [13] has as its system NCIH522. As to the kind of experiment: Activity against cancer cell lines. In kind it is cell-based. Particulars: Homo sapiens, NCI-H522.
Excerpt: as §1

Series [14] concerns OVCAR4. The series is described as follows: Activity against cancer cell lines. In kind it is cell-based.
Excerpt: as §1

For series [15], the system named is OVCAR8. The series is described as follows: Activity against cancer cell lines. In kind it is cell-based.
Excerpt: as §1

Series [16] deals with RXF393. As to the kind of experiment: Activity against cancer cell lines. Type of series: cell-based. Particulars: Homo sapiens, RXF 393.
Excerpt: as §1

Series [17] has as its system SF295. As to the kind of experiment: Activity against cancer cell lines. Conditions: Homo sapiens, SF-295. In kind it is cell-based.
Excerpt: as §1

Series [18] deals with SF539. The series is described as follows: Activity against cancer cell lines. Particulars: Homo sapiens, SF-539. Type of series: cell-based.
Excerpt: as §1

The test system of series [19] is SKMEL2. The series is described as follows: Activity against cancer cell lines. Particulars: Homo sapiens, SK-MEL-2. In kind it is cell-based.
Excerpt: as §1

For series [20], the system named is SKMEL5. As to the kind of experiment: Activity against cancer cell lines. Type of series: cell-based. Particulars: Homo sapiens, SK-MEL-5.
Excerpt: as §1

Series [21] deals with SNB75. As to the kind of experiment: Activity against cancer cell lines. In kind it is cell-based.
Excerpt: as §1

The test system of series [22] is UO31. The series is described as follows: Activity against cancer cell lines. Type of series: cell-based. Particulars: Homo sapiens, UO-31.
Excerpt: as §1

Series [23] concerns BT549. The series is described as follows: Breast cancer cell line growth inhibition. Particulars: Homo sapiens, BT-549; BT549, triple negative; read-out: IC50 against breast cancer cell lines. In kind it is cell-based. The text has this:
(§2) Generally, their potency is positively correlated with MAP4K4 expression in cancer cell lines.

Series [24] has as its system HS578T. As to the kind of experiment: Breast cancer cell line growth inhibition. In kind it is cell-based. Conditions: Homo sapiens, Hs-578T, triple negative, read-out: IC50 against breast cancer cell lines.
Excerpt: as §2

For series [25], the system named is MCF-7. The series is described as follows: Breast cancer cell line growth inhibition. Type of series: cell-based. Particulars: Homo sapiens, MCF7; MCF-7, ER (+); read-out: IC50 against breast cancer cell lines.
Excerpt: as §2

Series [26] deals with MDA-MB-231. As to the kind of experiment: Breast cancer cell line growth inhibition. In kind it is cell-based. Conditions: Homo sapiens; MDA-MB-231, triple negative; read-out: IC50 against breast cancer cell lines.
Excerpt: as §2

Series [27] concerns T47D. The series is described as follows: Breast cancer cell line growth inhibition. Particulars: Homo sapiens, ER (+), read-out: IC50 against breast cancer cell lines. Type of series: cell-based.
Excerpt: as §2

Series [28] has as its system DU-145. The series is described as follows: Prostate cancer cell proliferation assay. Type of series: cell-based. Conditions: Homo sapiens; DU-145, 72 hours; read-out: IC50 against prostate cancer cell lines. The text has this: (§3) The dose-response curves of cell growth inhibition were consistent.
(§4) Cell proliferation assays.

Series [29] relates to LNCaP. The series is described as follows: Prostate cancer cell proliferation assay. Conditions: Homo sapiens, 72 hours, read-out: IC50 against prostate cancer cell lines. In kind it is cell-based.
Excerpt: as §3, §4

Series [30] deals with PC-3. As to the kind of experiment: Prostate cancer cell proliferation assay. Type of series: cell-based. Conditions: Homo sapiens; PC-3, 72 hours; read-out: IC50 against prostate cancer cell lines.
Excerpt: as §3, §4

Series [31] can be described thus: In vivo pharmacokinetic study, oral formulations. Conditions: mouse, plasma, 60 mg/kg, mice. The protocol:
In vivo pharmacokinetic (PK) studies; oral bioavailability. We conducted pre-formulation studies and selected different oral formulations for mice PK studies to explore the effect of formulation on drug absorption.
The PK profiles of representative compounds (60 mg/kg) were determined in different oral formulations (HPC and PTTW) with groups of three mice per time point.

Series [32] is described as follows: Metabolic stability in liver microsomes. In kind it is in vitro ADME. Particulars: NADPH, 10 μM. On the procedure: The compounds are experimentally predicted to have a longer half-life in humans. We conducted metabolic stability studies in human and mouse liver microsomes. Metabolic stability in pooled human or mouse liver microsomes, in the presence of NADPH, was measured with 10 μM compound over 60 min.
On the technique in general: Liver microsomes are vesicles of endoplasmic reticulum, rich in cytochrome P450 enzymes.

Series [33] relates to caspase-3 and -7 activities. As to the kind of experiment: Caspase-Glo 3/7 apoptosis assay. In kind it is cell-based. Conditions: 20 nM. The text has this: Efficacy-related endpoints. We conducted an in-depth mechanism of action study in androgen-sensitive (LNCaP) and -insensitive (PC-3 and DU-145) prostate cancer cell lines.
Apoptosis assay. The Caspase-Glo® 3/7 Assay (Promega), a homogeneous, luminescent assay that measures caspase-3 and -7 activities, was used to access apoptosis induction.

Series [34] deals with PC-3 prostate cancer xenografts. The series is described as follows: Antitumor activity in PC-3 xenografts. In kind it is in vivo. Particulars: nude mice. The protocol:
In vivo efficacy studies: antitumor and antimetastatic effects against androgen-insensitive prostate cancer. Antitumor activity was tested in nude mice bearing aggressive, androgen-independent PC-3 prostate cancer xenografts. Docetaxel, a standard treatment for metastatic prostate cancer, was included in the study as a positive control. Docetaxel was administered at its maximum tolerated dose (MTD) via intraperitoneal (IP) (Q3Dx2; Monday, Friday). Mice were orally treated with compound in 0.5% HPC with 4 different treatment regimens. The control group was treated with vehicle (0.5% HPC) only. Treatment was initiated when average tumor volume reached 100 mm^3 (10 mice per group).
The compounds show a significant dose-dependent growth inhibition of prostate tumor. Docetaxel at its MTD (7.5 mg/kg; Q3Dx2) produces only 10-15% growth inhibition. […] Treatment with representative compounds (12.5, 25 and 50 mg/kg/day) caused a significant dose-dependent growth reduction of PC-3 tumors.

Sequence of MAP4K4 (O95819 whole entry): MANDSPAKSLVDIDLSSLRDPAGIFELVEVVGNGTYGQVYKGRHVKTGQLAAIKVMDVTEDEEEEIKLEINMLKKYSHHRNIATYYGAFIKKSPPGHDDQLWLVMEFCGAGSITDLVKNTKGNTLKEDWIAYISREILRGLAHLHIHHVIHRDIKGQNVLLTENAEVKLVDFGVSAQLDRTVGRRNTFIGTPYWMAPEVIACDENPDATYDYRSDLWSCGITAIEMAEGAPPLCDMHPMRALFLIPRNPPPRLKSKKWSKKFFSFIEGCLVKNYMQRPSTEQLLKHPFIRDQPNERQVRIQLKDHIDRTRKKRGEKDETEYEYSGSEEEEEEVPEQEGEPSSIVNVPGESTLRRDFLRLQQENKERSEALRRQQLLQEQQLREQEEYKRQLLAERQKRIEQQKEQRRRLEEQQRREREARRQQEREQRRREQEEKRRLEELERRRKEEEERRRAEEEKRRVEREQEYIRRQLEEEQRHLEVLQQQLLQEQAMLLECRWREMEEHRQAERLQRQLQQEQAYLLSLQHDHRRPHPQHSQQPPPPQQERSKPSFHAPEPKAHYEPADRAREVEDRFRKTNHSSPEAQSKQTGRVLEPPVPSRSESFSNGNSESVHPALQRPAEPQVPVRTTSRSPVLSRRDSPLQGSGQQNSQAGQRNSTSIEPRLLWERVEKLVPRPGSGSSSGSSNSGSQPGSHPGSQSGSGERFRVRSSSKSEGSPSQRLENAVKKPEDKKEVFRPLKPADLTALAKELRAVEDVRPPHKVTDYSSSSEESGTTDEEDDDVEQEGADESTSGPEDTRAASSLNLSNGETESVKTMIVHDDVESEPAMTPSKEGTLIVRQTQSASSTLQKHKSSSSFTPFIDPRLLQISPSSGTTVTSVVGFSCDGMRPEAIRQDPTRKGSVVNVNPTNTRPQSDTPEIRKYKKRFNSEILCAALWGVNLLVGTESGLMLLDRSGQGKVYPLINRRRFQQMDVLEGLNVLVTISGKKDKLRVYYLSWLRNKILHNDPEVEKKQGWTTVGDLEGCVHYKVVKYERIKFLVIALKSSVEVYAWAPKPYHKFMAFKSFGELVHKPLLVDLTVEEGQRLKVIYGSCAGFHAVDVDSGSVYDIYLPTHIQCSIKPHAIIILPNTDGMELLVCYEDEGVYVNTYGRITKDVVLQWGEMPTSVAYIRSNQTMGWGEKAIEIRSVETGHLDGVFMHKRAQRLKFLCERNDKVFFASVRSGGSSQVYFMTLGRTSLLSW

On to `COc1ccc2[nH]c(C(=O)c3ccc4[nH]ccc4c3)cc2c1` [Cmpd 1, (1H-indol-5-yl)(5-methoxy-1H-indol-2-yl)methanone], for which the IC50 (in general, the concentration that inhibits the measured activity by half) in series [1] was 160 nM; in series [2] it was 52 nM; in series [3], 5.7 nM; in [4], 27 nM; in series [5] it was 23 nM; in series [6] it was 27 nM. For the same compound, the IC50 in series [7] (HL60) came out at 24 nM; in series [7] (Homo sapiens, HL-60, HL60) it was 35 nM; in series [8] it was 14 nM; in series [9], 38 nM; in series [10], 59 nM; in series [11], 21 nM. Also, the half-inhibitory concentration (IC50) in series [12] turned out to be 53 nM; in series [13], 32 nM; in series [14] (Homo sapiens, OVCAR-4, OVCAR4), 90 nM; in [14] (OVCAR4), 56 nM; in series [15] (Homo sapiens, OVCAR-8, OVCAR8), 67 nM; in [15] (OVCAR8), 53 nM. In addition, the IC50 was determined as 38 nM in [16]; 54 nM in series [17]; 39 nM in series [18]; 63 nM in series [19]; 33 nM in series [20]; 42 nM in [21] (Homo sapiens, SNB-75, SNB75). Further, the IC50 worked out at 34 nM in series [21] (SNB75) and 66 nM in series [22].

As to `COc1ccc2[nH]c(C(=O)c3ccc4[nH]nc(C)c4c3)cc2c1` [Cmpd 18, (5-methoxy-1H-indol-2-yl)(3-methyl-1H-indazol-5-yl)methanone], the IC50 was 140 nM in series [1]; 12 nM in series [23]; 13 nM in [24]; 83 nM in series [25]; 14 nM in series [26]; 29 nM in series [27]. Moreover, the IC50 in [28] is 23 nM; in [29], 16 nM; in [30], 11 nM. Further, the concentration at 0.5 h came to 319 ± 106 ng/mL in series [31] (oral 60 mg/kg in 0.5% HPC) and 798 ± 204 ng/mL in series [31] (oral 60 mg/kg in PTTW). The figures for the concentration at 4 h in series [31] (oral 60 mg/kg in 0.5% HPC) and in [31] (oral 60 mg/kg in PTTW) were 33 ± 21 ng/mL and 75.5 ± 19.3 ng/mL, respectively. Besides, the concentration at 8 h worked out at 34.7 ± 18.8 ng/mL in [31] (oral 60 mg/kg in 0.5% HPC) and 21.7 ± 11.1 ng/mL in [31] (oral 60 mg/kg in PTTW). For the same compound, the concentration at 24 h in series [31] (oral 60 mg/kg in 0.5% HPC) was 1.3 ± 2.3 ng/mL; in series [31] (oral 60 mg/kg in PTTW), 15.4 ± 7.2 ng/mL. For the same compound, the “% of Parent Compound Remaining vs T = 0 min” value in [32] (human liver microsomes, 15 min) came out at 72.9%; in series [32] (human liver microsomes, 30 min), 63.1%; in series [32] (human liver microsomes, 60 min) it was 53.0%; in [32] (mouse liver microsomes, 15 min), 31.6%; in [32] (mouse liver microsomes, 30 min), 9.9%; in [32] (mouse liver microsomes, 60 min), 1.0%. Also, the apoptosis induction entry is on record as “significantly induced apoptosis” in [33] (24 hours treatment) and “more profound apoptotic effect” in [33] (48 hours treatment).

`COc1ccc2[nH]c(C(=NO)c3ccc4[nH]ccc4c3)cc2c1` [Cmpd 37, (1H-indol-5-yl)(5-methoxy-1H-indol-2-yl)methanone oxime]: the concentration for half-maximal inhibition (IC50) in series [2] is 330 nM; in series [3] it was 760 nM; in series [4], 64 nM; in [5] it was 67 nM; in series [6], 68 nM; in series [7] (HL60), 78 nM. The IC50 worked out at 81 nM in series [7] (Homo sapiens, HL-60, HL60); 440 nM in [8]; 110 nM in [9]; 85 nM in [10]; 66 nM in series [11]; 120 nM in [12]. For the same compound, the IC50 in series [13] stood at 100 nM; in series [14] (Homo sapiens, OVCAR-4, OVCAR4), 150 nM; in series [14] (OVCAR4) it was 110 nM; in series [16], 140 nM; in [17] it was 250 nM; in [18], 170 nM. For the same compound, the IC50 in series [19] stood at 580 nM; in series [20], 210 nM; in series [21] (Homo sapiens, SNB-75, SNB75), 110 nM; in series [22], 690 nM.

For the compound `CC(=O)O[C@@]12CO[C@@H]1C[C@H](O)[C@@]1(C)C(=O)[C@H](O)C3=C(C)[C@@H](OC(=O)[C@H](O)[C@@H](NC(=O)OC(C)(C)C)c4ccccc4)C[C@@](O)([C@@H](OC(=O)c4ccccc4)[C@H]21)C3(C)C` [Docetaxel, reference compound], the IC50 in series [28] stood at 72 nM; in [29], 31 nM; in series [30] it was 95 nM. Further, the tumor growth inhibition in series [34] (PC-3 xenografts, MTD 7.5 mg/kg IP Q3Dx2) is on record as 10-15%. Further, in series [34] (7.5 mg/kg IP, after the 4th injection), the lethal toxicity entry is “mice died on Day 13 due to lethal toxicity”.

These data come from patent US10000451B2, “MAP4K4 (HGK) inhibitors” (SRI INTERNATIONAL, priority 2015, dated 2018).
